Three sequences from EP0833842B1, “NOVEL PEPTIDES FOR USE IN TREATMENT OF T-CELL MEDIATED CARTILAGE DESTRUCTION IN AUTOIMMUNE DISEASES” (Akzo Nobel N.V., priority 1995, dated 1999) can be followed below.

Where no end group is shown, it is not given here.

The assay deals with DR4 (DRB1*0401) (Homo sapiens, UniProt P01903+P01911, A100K/A169T/F76Y/I96L/K127E/L162R/M171V/N62H/P40V/Q125Y/R42H/S133A/S149N/S66Y/V115G/V209L/W38E). Description: Peptide HLA-DR binding assay (semi-quantitative competition with biotinylated marker peptide). Conditions: read-out: DRB1*0401 ^eIC50. The procedure:
Two EBV-transformed B-cell lines, BSM (typed as DR4 [DRB1*0401] and BM92 (typed as DR4 [DRB1*0404) were provided by Dr. M. Oudshoom from the Academic Hospital Leiden, the Netherlands. The cells were cultured in Dulbecco's modified eagles minimal essential medium DMEM/HAM's F12 (Gibco Laboratories, Grand Island, NY) supplemented with 10% FCS (Hyclone Laboratories), 1% non-essential amino acids (ICI), L-glutamine, 2-ME and antibiotics. Cells were routinely passaged every 2-3 days in a 1:2 ratio. Cells were harvested and thereafter washed three times in phosphate buffer saline (PBS) (4°C) containing 1 mM PMSF. Cell pellets were stored at -70°C until use. HLA-DR expressing cells were thawed and lysed on ice for 30 minutes in PBS, 1% NP-40, 1 mM AEBSF (Calbiochem). The lysate was cleared of nuclei and debris by centrifugation at 15.000 rpm (Sorvall, SS34 rotor) for 30 minutes.
HLA-DR molecules were affinity purified from cell lysates using monoclonal antibody L243 (ATCC), directed against a nonpolymorphic determinant on the DR-complex (Lampson et al., J. Immunol. 125:293, 1980). Protein G sepharose purified L243 was coupled to NHS-Sepharose 4 FF (Pharmacia) according to the manufactures instructions. The cleared cell-lysate was passed through a 0.45 µm filter and added to L243-NHS-sepharose beads. […] Collected fractions were analysed on SDS-PAGE under non-reducing conditions followed by silver staining. […]
The peptide binding studies were performed using a semi-quantitative binding assay as described previously (Joosten et al., Int. Immunol. 6:751, 1994).
After approximately 48 hours incubation at room temperature, bound and unbound marker peptides were separated by SDS-PAGE under non-reducing conditions. […] Biotinylated peptides were detected by enhanced chemoluminescence using a Westem Blot ECL kit (Amersham, U.K.) according to the manufactures instructions. […]

For AGWLADGSLRYPI [HAG3], the IC50 was 1 to 10 µM.

With AGWLADRSVRYPI [HAG2], the IC50 lay in the range of 1 to 10 µM.

AGWLSDGSVQYPI [HCLP1]: the IC50 was in the range of 10 to 100 µM.
